# Like-named read-outs stand apart in the source and are kept apart here. Square brackets hold non-standard residues; d marks the D form. Peptide text beside a SMILES is read from it.
# Assays:
# BALB/c male mice = test: Antinociceptive activity, tail flick test with heat radiation, intragastral or intraperitoneal; type: in vivo
# Description: For estimation of oral activity of novel cyclopeptides of the present invention, the “tail flick” test was used. The results were compared with those obtained using intraperitoneal administration.
# Antinociceptive activity of the peptides of the present invention was assessed in experiments on BALB/c male mice weighing 22 to 24 g. The peptides were dissolved in saline and administered intraperitoneally or intragastrally.
# The “Tail flick” test (D'Amour, F. E. et al. “A Method for Determining Loss of Pain Sensation”, J. Pharmacol. Exp. Ther., Vol. 72, Pages 74 to 79, 1941) was performed on an analgesimeter type 812, Hugo Sachs Electronick KG. Antinociceptive activity was defined as the absence of tail flick response on stimulation with a focused bundle of heat radiation with 6 sec at baseline response of 2.0-3.0 seconds.
# Statistical treatment of the results was carried out by the Student's paired t-test.
# mice F1(CBAxC57D16) = test: Analgesic activity, tail flick test, water 48° C., intraperitoneal; type: in vivo; settings: Table 10; for Initial sensitivity level: before injection
# Description: Two hundred and twenty mice F1(CBAxC57D16) first generation hybrids were used for testing of analgesic activity using the “tail flick” test. The water temperature was at 48° C. The maximal effect was for the period of 30 seconds. All peptides were injected intraperitoneally in the doses of 5, 10 or 20 mg/kg. Analgesic effect was estimated in the time interval of 15 to 120 min after peptide injection. Student's t-criterion was used for statistical calculations of the results. Statistical significance were at the level of p≦0.05.
# [1] = molecular target: μ-receptor (isolated guinea pig ileum, GPI) (Cavia porcellus, UniProt P97266); test: Peripheral opioid activity: inhibition of electrically-induced contractions of isolated guinea pig ileum (GPI); settings: for Value of pD2 (M ± m): negative logarithm of EC50; for EC50: concentration reducing contraction amplitude by 50%, 5 replications
# Description: The segment of GPI about 1 cm long was placed into a 10-ml organ bath containing Krebs solution at 34° C. […] Resting tension of the organ was 1 g. The segment of GPI was stimulated by single pulses duration 1 ms with 0.1 Hz at 80 V. The solution with isolated organs was constantly aerated. The contractions were recorded in an isometrical mode by a sensor K 30 (Hugo Sachs Elektronic KG) with paper register Rikadenki-series (Japan).
# The substances tested were dissolved in distilled water and added cumulatively to the organ bath at a volume of 5 to 30 mcl. Each subsequent substance was added after the isolated organs were washed 3 or 4 times for 12-15 min. On the basis of the data obtained, dose-effects curves were plotted and the activity of substances was expressed by IC50 or pD2. The pD2 index was equal to a negative decimal logarithm of the substance concentration causing a 50% of the maximal effect.
# New dermorphin analogues were tested in the standard model of Guinea pig ileum binding test.
# For confirmation of opioid activity, the specific antagonist naloxson was used in concentration of 10^−5M. Each molecule was tested in 5 independent replications and relative activity was calculated as negative logarithm of EC50 (pD2).
# [2] = system: hemopoietic precursor cells; test: Exogenous spleen colonies from bone marrow irradiated ex vivo with 1 Gy; type: in vivo
# Description: In this study, the method of exogenous spleen colonies was applied. A suspension of intact bone marrow cells was irradiated ex vivo in the dose of 1 Gy. Different doses of Neogen or cyclic peptides were injected IP, 1M, subcutaneous or introduced per os to lethally irradiated recipients within an hour after the injection of irradiated bone marrow. Colonies were counted on day 8. All data in each group was the mean of three tests.
# [3] = Table 11, oral 50 mg/kg group, before administration
# [4] = Table 12, intraperitoneal 10 mg/kg group, before injection
# [5] = Table 12, intraperitoneal 10 mg/kg, 15 min, cut-off 6 sec
# Chain of μ-receptor (isolated guinea pig ileum, GPI) (P97266 whole entry): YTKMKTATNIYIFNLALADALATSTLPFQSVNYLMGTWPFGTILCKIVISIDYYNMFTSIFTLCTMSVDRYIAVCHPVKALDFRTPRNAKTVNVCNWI
compound,measurement,setting,value
"CNC(=O)[C@H](CO)NC(=O)[C@@H]1CCCN1C(=O)[C@H](Cc1ccc(O)cc1)NC(=O)[C@@H](C)NC(=O)[C@H](Cc1ccccc1)NC(=O)[C@@H](C)NC(=O)[C@@H](N)Cc1ccc(O)cc1 [Compound 50, H-Tyr-D-Ala-Phe-D-Ala-Tyr-Pro-Ser-NH-CH3, reference compound] (H-Y[dA]F[dA]YPS-NHMe)","Initial sensitivity level, mean",BALB/c male mice; [3],2.6 ± 0.1 s
same,Effect duration,"BALB/c male mice; Table 11, oral 50 mg/kg, 15 min, cut-off 6 sec",3.3 ± 0.6 s
same,Effect duration,"BALB/c male mice; Table 11, oral 50 mg/kg, 30 min",2.3 ± 0.1 s
same,Effect duration,"BALB/c male mice; Table 11, oral 50 mg/kg, 90 min",4.3 ± 0.6 s
same,"Initial sensitivity level, mean",BALB/c male mice; [4],2.0 ± 0.1 s
same,Effect duration,BALB/c male mice; [5],3.6 ± 0.7 s
same,Initial sensitivity level,mice F1(CBAxC57D16); 5 mg/kg group,3.0 ± 0.1 s
same,Effect duration,"mice F1(CBAxC57D16); 5 mg/kg i.p., 15 min after injection",9.0 ± 1.7 s
same,Effect duration,"mice F1(CBAxC57D16); 5 mg/kg i.p., 30 min",10.3 ± 2.6 s
same,Effect duration,"mice F1(CBAxC57D16); 5 mg/kg i.p., 45 min",14.3 ± 3.7 s
same,Effect duration,"mice F1(CBAxC57D16); 5 mg/kg i.p., 60 min",10.8 ± 1.9 s
same,Effect duration,"mice F1(CBAxC57D16); 5 mg/kg i.p., 90 min",6.4 ± 1.5 s
same,Effect duration,"mice F1(CBAxC57D16); 5 mg/kg i.p., 120 min",3.5 ± 0.2 s
same,Initial sensitivity level,mice F1(CBAxC57D16); 10 mg/kg group,2.9 ± 0.2 s
same,Effect duration,"mice F1(CBAxC57D16); 10 mg/kg i.p., 15 min",5.9 ± 0.7 s
same,Effect duration,"mice F1(CBAxC57D16); 10 mg/kg i.p., 30 min",10.7 ± 0.8 s
same,Effect duration,"mice F1(CBAxC57D16); 10 mg/kg i.p., 45 min",12.2 ± 2.6 s
same,Effect duration,"mice F1(CBAxC57D16); 10 mg/kg i.p., 60 min",7.2 ± 1.2 s
same,Effect duration,"mice F1(CBAxC57D16); 10 mg/kg i.p., 90 min",6.9 ± 1.4 s
same,Effect duration,"mice F1(CBAxC57D16); 10 mg/kg i.p., 120 min",3.7 ± 0.4 s
same,Value of pD2 (M ± m),[1],7.95 ± 0.07
same,EC50,[1]; read-out: Median EC50 in M,9.5 nM
"C[C@@H](NC(=O)[C@H](Cc1ccc(O)cc1)NC(=O)[C@@H](N)CCCNC(=N)N)C(=O)N[C@@H](Cc1ccccc1)C(=O)NCC(=O)O [Compound 52, Arg-Tyr-D-Ala-Phe-Gly-OH] (H-RY[dA]FG-OH; N-terminus assumed)",EC50,[1]; read-out: Median EC50,3000 nM
same,Value of pD2 (M ± m),[1],5.50 ± 0.07
"C[C@@H](NC(=O)[C@H](Cc1ccccc1)NC(=O)[C@@H](C)NC(=O)[C@H](Cc1ccc(O)cc1)NC(=O)[C@@H](N)CCCNC(=N)N)C(=O)O [Compound 53, H-Arg-Tyr-D-Ala-Phe-D-AlaOH] (H-RY[dA]F[dA]-OH)","Initial sensitivity level, mean",BALB/c male mice; [4],2.4 ± 0.1 s
same,Effect duration,BALB/c male mice; [5],2.7 ± 0.1 s
same,Value of pD2 (M ± m),[1],6.06 ± 0.12
same,EC50,[1]; read-out: Median EC50 in M,1000 nM
Cyclo-[L-Lys(H-Tyr-D-Ala-Phe-D-Ala-Tyr-Pro-Ser)-L-Glu(L-Trp-OH)],"Initial sensitivity level, mean",BALB/c male mice; [3],2.2 ± 0.1 s
same,"Initial sensitivity level, mean",BALB/c male mice; [4],2.1 ± 0.1 s
same,Effect duration,BALB/c male mice; [5],4.1 ± 0.4 s
same,Initial sensitivity level,mice F1(CBAxC57D16); 10 mg/kg group,3.7 ± 0.2 s
same,Effect duration,"mice F1(CBAxC57D16); 10 mg/kg i.p., 15 min",6.8 ± 0.6 s
same,Effect duration,"mice F1(CBAxC57D16); 10 mg/kg i.p., 30 min",6.3 ± 0.7 s
same,Effect duration,"mice F1(CBAxC57D16); 10 mg/kg i.p., 45 min",8.4 ± 1.4 s
same,Effect duration,"mice F1(CBAxC57D16); 10 mg/kg i.p., 60 min",7.7 ± 1.7 s
same,Effect duration,"mice F1(CBAxC57D16); 10 mg/kg i.p., 90 min",6.7 ± 1.0 s
same,Effect duration,"mice F1(CBAxC57D16); 10 mg/kg i.p., 120 min",4.6 ± 0.3 s
same,Initial sensitivity level,mice F1(CBAxC57D16); 20 mg/kg group,3.4 ± 0.2 s
same,Effect duration,"mice F1(CBAxC57D16); 20 mg/kg i.p., 15 min",7.8 ± 0.5 s
same,Effect duration,"mice F1(CBAxC57D16); 20 mg/kg i.p., 30 min",8.3 ± 0.8 s
same,Effect duration,"mice F1(CBAxC57D16); 20 mg/kg i.p., 45 min",8.7 ± 1.2 s
same,Effect duration,"mice F1(CBAxC57D16); 20 mg/kg i.p., 60 min",9.5 ± 1.2 s
same,Effect duration,"mice F1(CBAxC57D16); 20 mg/kg i.p., 90 min",9.7 ± 1.3 s
same,Effect duration,"mice F1(CBAxC57D16); 20 mg/kg i.p., 120 min",8.2 ± 1.7 s
"COC(=O)[C@H](Cc1c[nH]c2ccccc12)NC(=O)CC[C@@H]1NC(=O)[C@H](C)NC1=O [Compound 16, Cyclo-L-Ala-L-Glu-(L-Trp-OMe)]",% stimulation,[2]; 100 μg/kg per/os,74.8%
same,Colony count,[2]; 100 μg/kg per/os,8.9 ± 0.5
same,% stimulation,[2]; 100 μg/kg s/c,67.2%
same,Colony count,[2]; 100 μg/kg s/c,8.0 ± 0.5
"C[C@@H](NC(=O)[C@H](Cc1ccccc1)NC(=O)[C@@H](C)NC(=O)[C@@H](N)Cc1ccc(O)cc1)C(=O)N[C@@H](Cc1ccc(O)cc1)C(=O)N1CCC[C@H]1C(=O)N[C@@H](CO)C(=O)NCCCC[C@@H]1NC(=O)[C@H](CCC(=O)N[C@@H](Cc2c[nH]c3ccccc23)C(=O)O)NC1=O [Compound 47, Cyclo-[L-Lys(H-Tyr-D-Ala-Phe-D-Ala-Tyr-Pro-Ser)-L-Glu(L-Trp-OH)]]",Value of pD2 (M ± m),[1],7.52 ± 0.07
same,EC50,[1]; read-out: Median EC50 in M,33 nM
"C[C@@H](NC(=O)[C@@H](N)Cc1ccc(O)cc1)C(=O)N[C@@H](Cc1ccccc1)C(=O)NCC(=O)N[C@@H](Cc1ccc(O)cc1)C(=O)N1CCC[C@H]1C(=O)N[C@@H](CO)C(N)=O [Compound 48, H-Tyr-D-Ala-Phe-Gly-Tyr-Pro-Ser-NH2]",Value of pD2 (M ± m),[1],8.56 ± 0.12
same,EC50,[1]; read-out: Median EC50 in M,2.5 nM
